Data taken from US20120100616A1, “METHOD OF DOUBLE CROSSOVER HOMOLOGOUS REC[…] CLOSTRIDIA” (THE UNIVERSITY OF NOTTINGHAM, priority 2009, published 2012).

Tests used:
[1] = tested on: C. difficile cells harbouring the codA cassette; experiment: functionality testing of codA cassette for counter selection on minimal medium with FC; type: cell-based; settings: 100 μg/ml FC, modified minimal medium, codA cassette on pMTL960 plasmid, FIG. 4
Text: (§1) The codA expression cassette was isolated from the vector used by Fox et al., Gene Therapy. (1996) 3:173-178 and cloned into pMTL960. This plasmid was used to test the functionality of the codA gene in E. coli and C. difficile.

[2] = tested on: E. coli harbouring the codA construct; experiment: functionality testing of codA gene in E. coli with and without FC; type: cell-based; settings: codA cassette on pMTL960 plasmid, with vs without FC
Text: as §1

Compound: Nc1nc(=O)[nH]cc1F [FC, 5-fluorocytosine]
- growth of cells expressing codA on minimal medium containing FC [1]: did not grow
- growth of E. coli carrying the codA construct in presence of FC [2]: permitting growth in the absence of FC but not in the presence of FC
